Results on four compounds are retold here after article PMC9481151, “Discovery of new symmetrical and asymmetrical nitrile-containing 1,4-dihydropyridine derivatives as dual kinases and P-glycoprotein inhibitors: synthesis, in vitro assays, and in silico studies” (Journal of Enzyme Inhibition and Medicinal Chemistry, 2022).

One test concerns the target EGFR (Homo sapiens, UniProt P00533). More on the design: method as in PMID 34146919. Conditions: introduction; cited from earlier work.
A further test concerns the target BTK (Homo sapiens, UniProt Q06187). More on the design: method as in PMID 34146919. Conditions: introduction; cited from earlier work.
For another test, the target named is HER-2 (Homo sapiens, UniProt P04626). More on the design: method as in PMID 34146919. Conditions: introduction; cited from earlier work.
Chain of HER-2 (P04626 23-1255): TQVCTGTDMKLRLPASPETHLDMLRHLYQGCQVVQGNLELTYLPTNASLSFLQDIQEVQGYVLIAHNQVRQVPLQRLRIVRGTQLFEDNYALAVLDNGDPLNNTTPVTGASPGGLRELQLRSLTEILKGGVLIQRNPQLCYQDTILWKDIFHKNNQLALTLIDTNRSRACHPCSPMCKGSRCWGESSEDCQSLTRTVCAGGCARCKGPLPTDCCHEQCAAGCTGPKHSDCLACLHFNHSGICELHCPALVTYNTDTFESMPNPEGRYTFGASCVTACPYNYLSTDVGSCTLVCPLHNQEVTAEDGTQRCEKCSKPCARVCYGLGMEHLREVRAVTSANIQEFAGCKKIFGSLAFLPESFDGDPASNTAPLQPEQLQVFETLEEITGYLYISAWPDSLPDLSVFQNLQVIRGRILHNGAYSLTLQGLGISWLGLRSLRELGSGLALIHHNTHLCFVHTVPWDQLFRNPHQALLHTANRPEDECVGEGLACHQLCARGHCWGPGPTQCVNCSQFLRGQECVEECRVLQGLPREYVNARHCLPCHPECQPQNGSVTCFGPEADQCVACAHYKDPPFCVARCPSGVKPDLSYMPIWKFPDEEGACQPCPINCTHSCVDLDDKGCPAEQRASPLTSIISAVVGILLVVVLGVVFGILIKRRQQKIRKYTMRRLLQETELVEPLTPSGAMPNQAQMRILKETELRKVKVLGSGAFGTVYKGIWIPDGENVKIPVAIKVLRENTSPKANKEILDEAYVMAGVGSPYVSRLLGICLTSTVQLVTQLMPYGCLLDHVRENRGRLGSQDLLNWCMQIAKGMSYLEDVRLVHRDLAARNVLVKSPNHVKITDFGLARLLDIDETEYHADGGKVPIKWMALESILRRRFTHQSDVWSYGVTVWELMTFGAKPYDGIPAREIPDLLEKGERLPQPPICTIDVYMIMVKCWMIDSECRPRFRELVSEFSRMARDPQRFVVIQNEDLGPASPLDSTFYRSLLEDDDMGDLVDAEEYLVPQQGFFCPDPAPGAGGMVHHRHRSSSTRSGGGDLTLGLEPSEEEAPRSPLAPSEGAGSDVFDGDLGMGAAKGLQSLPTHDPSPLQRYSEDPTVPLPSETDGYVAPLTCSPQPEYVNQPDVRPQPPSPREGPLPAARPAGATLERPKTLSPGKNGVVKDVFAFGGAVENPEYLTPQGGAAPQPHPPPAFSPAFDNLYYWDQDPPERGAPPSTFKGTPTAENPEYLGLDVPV
In a further test the test system is E. coli. Briefly: MIC, two-fold microbroth dilution method. Conditions: Escherichia coli, read-out: MIC (µg/mL) E. coli.
The next test has as its system B. subtilis. Briefly: MIC, two-fold microbroth dilution method. The conditions noted are these: Bacillus subtilis.
The next test deals with Staphylococcus aureus. Briefly: Agar well diffusion method. For orientation: A growth-free zone around the sample is the usual read-out of agar diffusion tests.
In the next test the test system is Escherichia coli. Briefly: Agar well diffusion method.
Test [1] concerns G positive and G negative bacteria. Briefly: Agar well diffusion method, summary. It counts as cell-based. Conditions: reference drug, range over four strains. An excerpt:
As a control, DMSO solvent was employed.

For a further test, the system named is P. aeruginosa. The test can be described thus: MIC, two-fold microbroth dilution method. Conditions: Pseudomonas aeruginosa, read-out: MIC (µg/mL) P. aeruginosa.
For the next test, the system named is Bacillus subtilis. Briefly: Agar well diffusion method.
Another test deals with Pseudomonas aeruginosa. The test can be described thus: Agar well diffusion method.
The test system of another test is S. aureus. The test can be described thus: MIC, two-fold microbroth dilution method. The conditions noted are these: Staphylococcus aureus. On the technique in general: Dilution methods test growth across graded concentrations, often in twofold steps.
A further test relates to L-type calcium channels. Conditions: cited from earlier work.
The subject of the next test is Candida albicans. Briefly: Agar well diffusion method.
For a further test, the system named is A. flavus. Briefly: MIC, two-fold microbroth dilution method. The conditions noted are these: Aspergillus flavus, read-out: MIC (µg/mL) A. flavus.
The subject of test [2] is fungi (Candida albicans and Aspergillus flavus). Briefly: Agar well diffusion method, summary. The conditions noted are these: range over strains.
In a further test the test system is C. albicans. Briefly: MIC, two-fold microbroth dilution method. Conditions: Candida albicans, read-out: MIC (µg/mL) C. albicans.
The test system of another test is Aspergillus flavus. Briefly: Agar well diffusion method.

Converted amounts (≈) assume the structure as drawn. Where two headings read alike, the source gives them in different places.

In general, IC50 refers to the midpoint of a concentration-inhibition curve. Broadly, the zone of inhibition is the extent of the growth-free halo in a diffusion test.

Chain of BTK (Q06187 whole entry): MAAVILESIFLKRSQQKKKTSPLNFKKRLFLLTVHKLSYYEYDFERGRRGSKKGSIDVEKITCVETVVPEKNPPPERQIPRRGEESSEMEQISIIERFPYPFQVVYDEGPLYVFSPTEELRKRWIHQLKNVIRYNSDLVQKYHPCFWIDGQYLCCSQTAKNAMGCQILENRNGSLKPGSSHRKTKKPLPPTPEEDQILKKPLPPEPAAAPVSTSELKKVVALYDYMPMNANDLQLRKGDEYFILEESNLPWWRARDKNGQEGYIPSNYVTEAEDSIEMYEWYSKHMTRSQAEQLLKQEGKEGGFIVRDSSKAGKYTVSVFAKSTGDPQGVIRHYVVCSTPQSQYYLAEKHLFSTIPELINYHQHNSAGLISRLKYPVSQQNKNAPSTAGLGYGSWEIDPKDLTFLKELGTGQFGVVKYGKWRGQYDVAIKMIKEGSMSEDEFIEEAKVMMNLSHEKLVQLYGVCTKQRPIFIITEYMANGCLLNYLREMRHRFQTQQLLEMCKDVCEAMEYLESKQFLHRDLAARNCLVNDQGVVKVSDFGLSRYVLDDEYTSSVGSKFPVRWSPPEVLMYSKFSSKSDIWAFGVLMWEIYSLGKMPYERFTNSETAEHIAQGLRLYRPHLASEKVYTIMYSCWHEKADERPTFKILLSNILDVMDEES
Chain of EGFR (P00533 25-1210): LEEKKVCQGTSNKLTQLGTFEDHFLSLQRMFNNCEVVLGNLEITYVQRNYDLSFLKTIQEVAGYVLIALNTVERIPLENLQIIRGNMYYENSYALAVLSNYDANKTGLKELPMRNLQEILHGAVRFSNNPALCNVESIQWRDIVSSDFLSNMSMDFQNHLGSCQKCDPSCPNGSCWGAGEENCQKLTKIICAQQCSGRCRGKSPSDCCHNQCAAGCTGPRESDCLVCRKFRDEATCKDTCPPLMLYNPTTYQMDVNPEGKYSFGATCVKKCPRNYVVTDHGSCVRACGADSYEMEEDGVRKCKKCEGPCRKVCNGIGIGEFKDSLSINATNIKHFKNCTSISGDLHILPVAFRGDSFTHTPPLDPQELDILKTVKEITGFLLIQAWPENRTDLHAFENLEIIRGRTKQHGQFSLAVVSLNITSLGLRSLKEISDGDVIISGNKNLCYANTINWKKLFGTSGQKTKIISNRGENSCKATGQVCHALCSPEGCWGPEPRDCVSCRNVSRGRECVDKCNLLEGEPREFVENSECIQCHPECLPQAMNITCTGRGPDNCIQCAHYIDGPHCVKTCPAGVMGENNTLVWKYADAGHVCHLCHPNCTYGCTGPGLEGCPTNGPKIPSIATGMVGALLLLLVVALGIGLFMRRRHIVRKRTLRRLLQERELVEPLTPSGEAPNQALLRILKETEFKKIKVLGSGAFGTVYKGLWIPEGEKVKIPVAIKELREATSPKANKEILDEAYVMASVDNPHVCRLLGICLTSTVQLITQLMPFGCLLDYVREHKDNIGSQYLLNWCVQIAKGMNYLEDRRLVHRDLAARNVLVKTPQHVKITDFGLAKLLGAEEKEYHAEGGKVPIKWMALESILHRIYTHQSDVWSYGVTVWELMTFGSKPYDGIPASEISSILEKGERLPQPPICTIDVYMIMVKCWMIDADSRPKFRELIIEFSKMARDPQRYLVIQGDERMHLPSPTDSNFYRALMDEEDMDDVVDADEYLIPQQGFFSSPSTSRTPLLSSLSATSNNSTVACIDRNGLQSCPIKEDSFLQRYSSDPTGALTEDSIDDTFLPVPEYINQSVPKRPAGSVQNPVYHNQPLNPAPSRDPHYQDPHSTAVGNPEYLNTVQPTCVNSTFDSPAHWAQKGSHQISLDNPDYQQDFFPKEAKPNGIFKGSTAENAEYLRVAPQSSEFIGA

On to `CCOC(=O)C1=C(C)NC(C)=C(C(=O)OCC)C1c1ccc2c(c1)Cc1ccccc1-2` [Compound II], for which the IC50 on EGFR was 71.8 nM; on BTK, 68.8 nM; at HER-2 it was 84.5 nM.
For the compound `O=C(O)c1cn(C2CC2)c2cc(N3CCNCC3)c(F)cc2c1=O` [Ciprofloxacin, reference compound], the MIC with E. coli is 0.5 µg/mL (≈ 1.51 µM); in the test with B. subtilis (24 h, read-out: MIC, B. subtilis), 2 µg/mL (≈ 6.04 µM); with B. subtilis (read-out: MIC (µg/mL) B. subtilis) it was 2 µg/mL (≈ 6.04 µM); with P. aeruginosa it was 1 µg/mL (≈ 3.02 µM); in the test with S. aureus (24 h, read-out: MIC, S. aureus) it was 1 µg/mL (≈ 3.02 µM); in the test with S. aureus (read-out: MIC (µg/mL) S. aureus) it was 1 µg/mL (≈ 3.02 µM). The zone of inhibition at 1000 µg/mL in the test on Staphylococcus aureus (Staphylococcus aureus, 24 h, read-out: Diameter of inhibition zone, S. aureus) was 24 mm; in the test with Escherichia coli (Escherichia coli, 24 h, read-out: Diameter of inhibition zone, E. coli), 26 mm; with Bacillus subtilis (Bacillus subtilis, 24 h, read-out: Diameter of inhibition zone, B. subtilis), 23 mm; with Pseudomonas aeruginosa (Pseudomonas aeruginosa, 24 h, read-out: Diameter of inhibition zone, P. aeruginosa), 23 mm. In addition, the “% activity index, S. aureus” value with Staphylococcus aureus (relative to ciprofloxacin) came to 100%. Further, the “% activity index, E. coli” value with Escherichia coli (relative to ciprofloxacin) is given as 100%. In addition, the DIZs against bacteria in test [1] is 23–26 mm. The “% activity index, B. subtilis” value with Bacillus subtilis (relative to ciprofloxacin) turned out to be 100%. Further, the “% activity index, P. aeruginosa” value in the test on Pseudomonas aeruginosa (relative to ciprofloxacin) was 100%.
With `COC(=O)C1=C(C)NC(C)=C(C(=O)OCCCN2CCC(c3ccccc3)(c3ccccc3)CC2)[C@@H]1c1cccc([N+](=O)[O-])c1` [Dexniguldipine, dexniguldipine], the “times less potent than (+)-niguldipine in its interaction with L-type calcium channels” value in the test with L-type calcium channels is listed as 40.
As for `Clc1ccccc1C(c1ccccc1)(c1ccccc1)n1ccnc1` [Clotrimazole, reference compound], the zone of inhibition at 1000 µg/mL was 27 mm in the test on Candida albicans (Candida albicans, 24 h, read-out: Diameter of inhibition zone, C. albicans) and 25 mm in the test with Aspergillus flavus (Aspergillus flavus, 24 h, read-out: Diameter of inhibition zone, A. flavus). Further, in the test on Candida albicans (relative to clotrimazole), the “% activity index, C. albicans” value amounted to 100%. The MIC in the test on A. flavus amounted to 1 µg/mL (≈ 2.9 µM); with C. albicans, 2 µg/mL (≈ 5.8 µM). For the same compound, the DIZs against fungi in test [2] is reported as 25–27 mm. The “% activity index, A. flavus” value in the test on Aspergillus flavus (relative to clotrimazole) worked out at 100%.
